{"source": "patent US20250257300A1", "about": "“MICROTITER-PLATE-BASED HIGH THROUGHPUT PERFUSION BIOREACTOR” (THE GEORGE WASHINGTON UNIVERSITY, priority 2022, published 2025)", "origin": "cited, not measured here", "test_system": "Pseudomonas aeruginosa biofilms", "details": "Pseudomonas aeruginosa biofilms growing on urinary catheters vs planktonic cells"}
{"compound": "NC[C@H]1O[C@H](O[C@H]2[C@H](O)[C@@H](O[C@H]3O[C@H](CO)[C@@H](O)[C@H](N)[C@H]3O)[C@H](N)C[C@@H]2N)[C@H](N)C[C@@H]1O", "note": "[tobramycin]", "values": [{"measurement": "resistance of biofilms to tobramycin relative to planktonic cells", "result": 1000, "unit": "times"}]}
